Experimental data reported in patent US11612651B2, “Steroid acid-based immunogen enhancers” (priority 2021, dated 2023).
No end group written: not given here. *: point of attachment. Cholyl = C[C@H](CCC(=O)*)[C@H]1CC[C@H]2[C@@H]3[C@H](O)C[C@@H]4C[C@H](O)CC[C@]4(C)[C@H]3C[C@H](O)[C@]12C

Tests used:
GII.3 human norovirus = details: host intestinal cells; free bile acids; cited from earlier work
B3Z cells [1] = assay: Antigen-presentation assay using the B3Z reporter system, BMDCs as antigen presenting cells; type: cell-based, mouse; details: for antigen-presentation activity of cholic acid-NLS peptide conjugate (B3Z response OD570): BMDCs as antigen presenting cells, mixed with OVA at best conjugate:antigen ratio, FIGS. 3-5; for antigen cross-presentation (B3Z response) compared with OVA alone: BMDCs, molar ratio (bile acid/peptide/conjugate):antigen 4:1, mixed with OVA, FIG. 2
Excerpt: For this experiment, BMDCs were used as the antigen presenting cells (n=6) and the molar ratio (bile acid/peptide/conjugate): antigen was 4:1. Controls tested included no antigen (“PBS”), antigen alone (“OVA alone”), unconjugated NLS peptide (“SV40NLS”), unconjugated cholic acid mixed with OVA (“CA”), and the positive control peptide SIINFEKL (SEQ ID NO: 9) mixed with OVA (“SIINFEKL”). The dashed line represents the signal obtained with OVA alone. Bile acids: cholic acid (CA); glycodeoxycholic acid (GDCA); glycochenodeoxycholic acid (GCDCA); ursodeoxycholic acid (UDCA); and lithocholic acid (LCA).
The dashed line represents the signal obtained with OVA alone. The readout was taken after 24 h of incubation and error bars represent SD (n=6). For this experiment, BMDCs were used as the antigen presenting cells.
The dashed line represents the signal obtained with OVA alone. Readout was taken after 24 h of incubation from a single experiment. The molar ratio of CA-peptide conjugate: OVA was 22:1. For this experiment, BMDCs were used as the antigen presenting cells.
For this experiment, BMDCs were used as the antigen presenting cells. The dashed line represents the signal obtained with OVA alone. Readout was taken after 24 h of incubation from a single experiment. The molar ratio of CA-peptide conjugate: OVA was as follows: CA-GWG-SV40NLS (12:1); CA-hnRNP M NLS (12:1); CA-NLS2-RPS17 NLS (22:1); CA-HuR NLS (22:1); CA-cMyc NLS (2:1); CA-NLS3-RPS17 NLS (22:1); CA-NLS2-RG-RPS17 NLS (2:1); CA-PQBP1 NLS (8:1); CA-hnRNPA1 M9 NLS (22:1); and CA-SV40 NLS (2:1).
(§1) Various bile acid-NLS conjugates were screened using the B3Z reporter system. The B3Z cell line is a T-cell hybridoma specific for the H2-K^b-SIINFEKL complex. Once activated via its TCR, the LacZ reporter gene (under the NFAT promoter control) is expressed. Briefly, 1.5×10^5 BMDCs or 2.5×10^5 MSCs were co-cultured with 5×10^4 B3Z cells treated with the mixing conditions of ovalbumin (OVA) and bile acid-NLS conjugates for overnight at 37° C. with 5% CO2. The following day, all cells were washed twice with PBS (pH 7.4), and the cell pellets were lysed by adding 100 μL of a lysis buffer containing 0.15 mM chlorophenol red-beta-D-galactopyranoside (CPRG) substrate (Calbiochem, La Jolla, Calif.), 0.125% NP40 (EMD Sciences, La Jolla, Calif.), 9 mM MgCl2 (Aldrich, USA) and 100 mM 2-mercaptoethanol in PBS. After a 5- or 24-h incubation at 37° C., absorbance was taken at 570 nm with 636 nm as the reference wavelength. For these experiments, OVA was re-suspended in PBS (pH 7.3) at 5-10 mg/mL. The different bile acid-NLS conjugates were re-suspended in H2O at 10 mg/mL. Bile acid-NLS conjugate: antigen mixtures were prepared at different molar ratios according to Table 2.
Variants of CA-SV40NLS were synthesized in order to explore structure-activity relationships relating to the antigen cross-presentation enhancing activity observed for this conjugate. More particularly, conjugates having different bile acids conjugated to the SV40NLS peptide (SEQ ID NO: 1) were synthesized and their effect on antigen presentation was evaluated by using the B3Z reporter system with the OVA antigen as described in Example 1. […] In FIG. 2, no increase in antigen cross-presentation over the antigen alone (“OVA”) was observed when OVA was mixed with either unconjugated cholic acid (“CA”) or SV40NLS peptide (“SV40NLS”), although lower sensitivity of the B3Z reporter system as compared to the OT-I CD8 T cell-based assay used in FIG. 1 may have been a factor.
(§2) Further variants of CA-SV40NLS were synthesized in which the SV40NLS peptide was replaced with peptides comprising other NLS's (Table 3) and the antigen presentation activities of the CA-NLS peptide conjugates were evaluated using the B3Z reporter system as described in Example 1. The following conjugate:antigen molar ratios were tested for each conjugate: 2:1, 4:1, 8:1, 12:1 and 22:1. […]

B3Z cells [2] = assay: Antigen-presentation assay using the B3Z reporter system, cross-presenting MSC line as antigen presenting cells; type: cell-based; details: compared to OVA alone or OVA mixed with CA-SV40NLS, FIG. 6
Description: For this experiment, a cross-presentation mesenchymal stromal cell (MSC) line was used as the antigen presenting cells. The dashed line represents the signal obtained with OVA alone. Readout was taken after 24 h of incubation. The molar ratio of CA-peptide conjugate: OVA was as follows: CA-GWG-SV40NLS (2:1); CA-hnRNP M NLS (8:1); CA-hnRNP D NLS (12:1); CA-NLS2-RG-RPS17 (4:1); CA-cMyc NLS (12:1); CA-HuR NLS (12:1); CA-Tus NLS (2:1); CA-NLS2-RPS17 NLS (4:1); CA-PQBP1 NLS (12:1); CA-hnRNPA1 M9 NLS (2:1); and CA-SV40 NLS (2:1).
as §1, §2

[3] = tested on: cross-presenting mesenchymal stromal cell (MSC) line; assay: Antigen internalization: MSC line pulsed with OVA labelled with Alexa Fluor 647, flow cytometry; type: cell-based; details: various conjugate:OVA molar ratios, FIGS. 7A-7D
Description: FIGS. 7A to 7D show the effect of different NLS peptides on the antigen internalization activity of cholic acid-NLS peptide conjugates. For this experiment, a cross-presenting mesenchymal stromal cell (MSC) line was used as the antigen presenting cells, which were pulsed with OVA labelled with Alexa Fluor 647 (i.e., OVA^647)™. OVA^647 fluorescence was measured by flow cytometry. Different ratios of CA (NLS1 RPS17 [FIG. 7A]; NLS3 RPS17 [FIG. 7B]; PQBP-1 [FIG. 7C]; and hnRNPA1 M9 NLS [FIG. 7D]) to antigen (CA:OVA=22:1, 12:1, 8:1, 4:1, and 2:1) were tested (hnRNPA1 M9 NLS at 2:1).
(§3) To further dissect the effect of bile acid peptide conjugates on antigen presentation, antigen internalization and processing were evaluated. MSC cell lines were pulsed with OVA-labelled with AF647 in the presence of various molar ratios of different bile acid peptide conjugates, NLS1-RPS17 [FIG. 7A]; NLS3 RPS17 [FIG. 7B]; PQBP-1 [FIG. 7C]; and hnRNPA1 M9 NLS [FIG. 7D]) and fluorescence was assessed by flow cytometry. […] OVA processing was assessed by pulsing MSC cell lines with DQ™-Ovalbumin (OVA-DQ) in the presence of the same bile acid peptide conjugates as in FIGS. 7A to 7D.

[4] = tested on: cross-presenting mesenchymal stromal cell (MSC) line; assay: Antigen processing: MSC line pulsed with DQ Ovalbumin (OVA-DQ), flow cytometry; type: cell-based; details: various conjugate:OVA molar ratios, FIGS. 8A-8D
Description: FIGS. 8A to 8D show the effect of different NLS peptides on the antigen processing activity of cholic acid-NLS peptide conjugates. For this experiment, a cross-presenting mesenchymal stromal cell (MSC) line was used as the antigen presenting cells, which were pulsed with DQ™ Ovalbumin (i.e., OVA^DQ). OVA^DQ fluorescence was measured by flow cytometry. Different ratios of CA (NLS1 RSP17 [FIG. 8A]; NLS3 RPS17 [FIG. 8B]; PQBP-1 [FIG. 8C]; and hnRNPA1 M9 NLS [FIG. 8D]) to antigen (CA:OVA=22:1, 12:1, 8:1, 4:1, and 2:1) were tested (hnRNPA1 M9 NLS at 2:1).
as §3

Compound	antigen-presentation activity of cholic acid-NLS peptide conjugate (B3Z response OD570) (B3Z cells [1])	OVA internalization (OVA-AF647 fluorescence) [3]	OVA processing (OVA-DQ fluorescence) [4]	also measured
C[C@H](CCC(=O)NCC(=O)O)[C@H]1CC[C@H]2[C@@H]3[C@H](O)C[C@@H]4C[C@H](O)CC[C@]4(C)[C@H]3C[C@H](O)[C@]12C [GCA, glycocholic acid]	–	–	–	effect on GII.3 human norovirus infection and replication (GII.3 human norovirus): increase GII.3 human norovirus infection and replication
C[C@H](CCC(=O)NCC(=O)O)[C@H]1CC[C@H]2[C@@H]3[C@@H](O)C[C@@H]4C[C@H](O)CC[C@]4(C)[C@H]3CC[C@]12C [GUDCA, glycoursodeoxycholic acid]	–	–	–	immunogen enhancer activity (B3Z reporter system) (B3Z cells [1]; GUDCA:OVA molar ratios 2:1, 4:1, 8:1, 12:1 and 22:1): observed at all GUDCA:OVA molar ratios tested; increase in B3Z response (OD570) over the OVA alone (B3Z cells [1]; unconjugated GUDCA mixed with OVA, 22:1, data not shown): ≤ 30%
C[C@H](CCC(=O)NCCS(=O)(=O)O)[C@H]1CC[C@H]2[C@@H]3[C@H](O)C[C@@H]4C[C@H](O)CC[C@]4(C)[C@H]3C[C@H](O)[C@]12C [TCA, taurocholic acid]	–	–	–	effect on GII.3 human norovirus infection and replication (GII.3 human norovirus): increase GII.3 human norovirus infection and replication
CA-GWG-SV40NLS: cholic acid conjugated to peptide CGWWGYGPKKKRKVGGWWG (SEQ ID NO: 3) (also: cholic acid conjugate, site not given here)	higher antigen-presentation activity than SV40NLS	–	–	antigen-presentation activity of cholic acid-NLS peptide conjugate (B3Z response OD570) (B3Z cells [2]): strikingly high antigen-presentation activity
CA-HuR NLS: cholic acid conjugated to peptide CGRFSPMGVDHMSGLSGVNVPG (SEQ ID NO: 13) (also: cholic acid conjugate, site not given here)	high antigen presentation activity	–	–	antigen-presentation activity of cholic acid-NLS peptide conjugate (B3Z response OD570) (B3Z cells [2]): strikingly high antigen-presentation activity
CA-NLS2-RG-RPS17 NLS: cholic acid conjugated to NLS2-RG Domain RPS17 peptide (SEQ ID NO: 11) (CNKRVCEEIAIIPSKKLRNKGSGRIQRGPVRGIS; cysteine pairing not given here; also: cholic acid conjugate, site not given here)	high antigen presentation activity	–	–	–
CA-NLS3-RPS17 NLS: cholic acid conjugated to peptide SKKLRNKIAGYVTHLMKRI (SEQ ID NO: 8) (also: cholic acid conjugate, site not given here)	high antigen presentation activity	enhance OVA internalization	enhance OVA processing	–
CA-PQBP1 NLS: cholic acid conjugated to peptide CADREEGKERRHHRREELAPY (SEQ ID NO: 6) (also: cholic acid conjugate, site not given here)	strikingly high antigen-presentation activity	enhance OVA internalization	enhance OVA processing	antigen-presentation activity of cholic acid-NLS peptide conjugate (B3Z response OD570) (B3Z cells [2]): strikingly high antigen-presentation activity
CA-SV40NLS: cholic acid conjugated to the N-terminal cysteine amino group of 13-mer peptide CGYGPKKKRKVGG (SEQ ID NO: 1) (Cholyl-CGYGPKKKRKVGG)	–	–	–	antigen cross-presentation (B3Z response) compared with OVA alone (B3Z cells [1]): increased antigen cross-presentation
CA-cMyc NLS: cholic acid conjugated to peptide CGYGPAAKRVKLDGG (SEQ ID NO: 12) (also: cholic acid conjugate, site not given here)	high antigen presentation activity	–	–	–
CA-hnRNPA1 M9 NLS: cholic acid conjugated to peptide CSNFGPMKGGNFGGRSSGPY (SEQ ID NO: 4) (also: cholic acid conjugate, site not given here)	–	enhance OVA internalization	enhance OVA processing	–
NLS1-RPS17: cholic acid conjugated to peptide CMGRVRTKTVKKAAGG (SEQ ID NO: 15) (also: cholic acid conjugate, site not given here)	–	enhance OVA internalization	enhance OVA processing	–
SV40NLS: unconjugated NLS peptide CGYGPKKKRKVGG (SEQ ID NO: 1) (SV40NLS) [reference compound]	–	–	–	antigen cross-presentation (B3Z response) compared with OVA alone (B3Z cells [1]): no increase
